As a reminder, the EC50 is the concentration needed to bring the measured effect to its halfway point.

Data set [1] can be described thus: In vitro metabolite profiling in human liver microsomes in absence of NADPH. The format is in vitro ADME. The arrangement: key: yes: Metabolite is formed in presence of human liver microsomes in the absence of cofactors as indication of a non-CYP-dependent pathway; Metabolite is not detected in microsomal incubations. As to the method: (§1) In vitro metabolite profiling to evaluate the involvement of non-CYP-enzyme-mediated metabolic pathways such as hydrolysis in addition to CYP-mediated pathways is based on the semiquantitative analysis of the formation of prototypic metabolites in incubations with liver microsomes (with and without beta-nicotinamide adenine dinucleotide phosphate, NADPH), primary human hepatocytes (with and without the pan-CYP inhibitor proadifen) and recombinant CYP enzymes.
(§2) The involvement of hydrolases, such as carboxylesterases or arylacetamide deacetylase, is assumed if the metabolite resulting from amide hydrolysis of a compound of the present invention of general formula (I) wherein R^6 is an acetyl-group, i.e. the deacetylated compound thereof, is not formed in presence of the relevant drug-metabolizing human recombinant CYP enzymes but is formed in human liver microsomes in the absence of NADPH. Hydrolases are highly abundant in liver microsomes; however, in contrast to CYP-related metabolic processes, the catalytic activity of hydrolases is independent of NADPH. As such, the deacetylated metabolite would be formed in incubations of human liver microsomes lacking NADPH.
(§3) A phenotyping assay was performed to identify the CYP enzymes responsible for metabolic conversion of the compound. The metabolic degradation of the test compound and the assessment of formation of metabolites was performed using Supersomes (human CYP expressed in baculovirus infected insect cells) and human liver microsomes, respectively. Compounds were tested specifically for their conversion by CYP isoenzymes 1A1, 1A2, 2B6, 2C8, 2C9, 2C19, 2D6, 3A4 and 3A5. […]
(§4) Following a short preincubation period for 15 min at 37° C., the reaction was initiated by addition of NADPH (reduced form, 1 mM). […] Samples were analyzed for formation of putative metabolites by means of by liquid chromatography-high resolution mass spectrometry.

The target of the next data set is human GPR52 (Homo sapiens (Human), UniProt Q9Y2T5). Briefly: HTRF assay for direct cAMP measurement. The format is cell-based. Conditions: CHO-K1 cells stably expressing recombinant human GPR52, mean EC50. As to the method: HTRF cAMP assays were performed using commercially available assay kits according to the manufacturer's instructions (cAMP Dynamic 2 Assay Kit; #62AM4PEJ, Cisbio Bioassays, Bedford, MA). An aliquot of CHO-K1 cells stably expressing recombinant human GPR52 was thawed and resuspended in cell buffer (1×PBS (w/o Ca^2+/Mg^2+)) at a density of 4×10^5 cells per mL. Test compounds were solubilized in DMSO to 10 mM stock solutions and serially diluted in DMSO using 6-fold dilutions to generate 8-point dose response curves. These serially diluted samples were then diluted 1:50 in compound dilution buffer (1×PBS (w/o Ca^2+/Mg^2+) containing 0.5 mM IBMX, 0.1% BSA) to achieve a 4× stock. The diluted compounds were transferred (5 μL per well) in duplicate to the 384-well assay plate (Optiplate #6007290, PerkinElmer, Waltham, MA). Both a positive (reference compound) and negative (non-stimulated vehicle) control was included in each assay run in column 23. The cell suspension was subsequently dispensed into the 384-well assay plates at 15 μL per well (6000 cells) such that the compound was diluted to 1×. […] After a one-hour incubation at room temperature, 10 μL of cAMP D2 reagent followed by 10 μL of cryptate reagent (provided in the Cisbio kit) was added to each well. Plates were then incubated at room temperature for one hour prior to reading. Time-resolved fluorescence measurements were collected on an EnVision® HTRF plate reader (PerkinElmer, Waltham, MA). Counts from the plate reader were fit to the cAMP standard curve included on each plate to determine the amount of cAMP in each test well. The % control was calculated based on the […]. Dose-response curves were generated from the cAMP data and analyzed using a nonlinear least squares curve-fitting program to obtain EC50 values.

The next data set relates to human plasma proteins. Briefly: Human plasma protein binding assay (equilibrium dialysis). The settings on record: 1 μM, 2 hours, 37° C. The format is in vitro ADME. The method, then: Equilibrium dialysis (ED) technique was used to determine the approximate in vitro fractional binding of test compounds to plasma proteins. Dianorm Teflon dialysis cells (micro 0.2) were used. Each dialysis cell consists of a donor and an acceptor chamber, separated by an ultrathin semipermeable membrane with a 5 kDa molecular weight cut-off. Stock solutions for each test compound were prepared in DMSO at 1 mM and serially diluted to obtain a final test concentration of 1 μM. The subsequent dialysis solutions were prepared in plasma (supplemented with NaEDTA as anticoagulant), and aliquots of 200 μL test compound dialysis solution in plasma were dispensed into the donor (plasma) chambers. Aliquots of 200 μL dialysis buffer (100 mM potassium phosphate, pH 7.4) were dispensed into the buffer (acceptor) chamber. Incubation was carried out for 2 hours under rotation at 37° C. for establishing equilibrium.
At the end of the dialysis period, aliquots obtained from donor and acceptor chambers, respectively, were transferred into reaction tubes, spiked with Internal Standard solution and processed for HPLC-MS/MS analysis. Analyte concentrations were quantified in aliquots of samples by HPLC-MS/MS against external calibration curves.
Percent bound was calculated using the formula: % bound=(plasma concentration−buffer concentration/plasma concentration)×100
Background: Equilibrium dialysis compares concentrations on both sides of a semipermeable membrane.

Data set [2] has as its system human recombinant CYP enzymes (1A1, 1A2, 2B6, 2C8, 2C9, 2C19, 2D6, 3A4, 3A5). The experiment in a line: CYP phenotyping with human recombinant CYP enzymes (Supersomes). Details: key: yes: Metabolite is formed in presence of human recombinant CYP-enzymes; Metabolite is not detected in presence of human recombinant CYP-enzymes as indication of a non-CYP-dependent pathway. It is filed as in vitro ADME. As to the method: as §1, §2, §3, §4

Setting [3] is: secondary metabolite m405 (of m411).
Where [4] appears, read: secondary metabolite m425 (of m411).
[5] abbreviates: secondary metabolite m443 (of m429).

Chain of human GPR52 (Q9Y2T5 whole entry): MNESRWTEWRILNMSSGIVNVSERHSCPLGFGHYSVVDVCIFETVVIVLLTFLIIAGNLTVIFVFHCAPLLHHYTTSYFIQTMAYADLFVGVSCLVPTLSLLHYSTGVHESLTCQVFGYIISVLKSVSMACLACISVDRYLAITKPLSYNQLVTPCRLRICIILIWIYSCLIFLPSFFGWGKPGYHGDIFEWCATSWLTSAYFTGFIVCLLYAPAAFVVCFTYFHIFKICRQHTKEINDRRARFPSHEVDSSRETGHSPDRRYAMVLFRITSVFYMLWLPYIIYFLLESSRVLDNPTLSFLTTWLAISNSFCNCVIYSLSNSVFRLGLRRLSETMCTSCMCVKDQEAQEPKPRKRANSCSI

Take `CC(=O)N1C[C@H](NC(=O)c2nccnc2N2CC(Oc3cc(F)cc(F)c3)C2)C(F)(F)C1` [Example 10a]: the “Formation in human liver microsomal incubations in absence of NADPH” value in data set [1] (setting [3]) and in data set [1] (setting [4]) was “no^5” throughout. Besides, at human GPR52, the EC50 was 14 nM. Further, in the data set with human plasma proteins, the “Hu PPB” value is 82.4 % bound. Also, the “Specific formation in human recombinant CYP enzymes” value in data set [2] (setting [3]) and in data set [2] (setting [4]) was “no^5” throughout.
In the case of `CC(=O)N1C[C@H](NC(=O)c2nccnc2N2CC(Oc3cc(F)c(F)c(F)c3)C2)C(F)(F)C1` [Example 11b], the “Formation in human liver microsomal incubations in absence of NADPH” value in data set [1] (setting [5]) is given as “no^6”. Moreover, the “Hu PPB” value in the data set on human plasma proteins is on record as 84.4 % bound. The “Specific formation in human recombinant CYP enzymes” value in data set [2] (setting [5]) is listed as “no”.
`CC(=O)N1CC[C@@H](NC(=O)c2nsnc2N2CC(Oc3cc(F)cc(F)c3)C2)C1` [Example 15a]: the EC50 on human GPR52 came out at 20 nM. Moreover, the “Hu PPB” value in the data set with human plasma proteins worked out at 90.2 % bound.
